Molecules are shown by their SMILES.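 Grown in 96-well plates, cells were treated for 48 hours with each compound at five concentrations. Insufficient inhibition: endpoint recorded as highest concentration tested. At the GI50, growth is halved. TGI: total growth inhibition.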 Bounds are passed on as bounds.

Common to all, as to assay: NCI-60 cell line screen, 48 h
Test [1] relates to SK-OV-3 ovarian.
The test system of test [2] is UO-31 renal.
For test [3], the system named is NCI-H460 lung.
For test [4], the system named is HT29 colon.
For test [5], the system named is LOX IMVI melanoma.
The subject of test [6] is SN12C renal.
Test [7] deals with 786-0 renal.
Test [8] relates to NCI-H226 lung.
In test [9] the test system is SF-539 CNS.

For `O=C1c2ccccc2C(=O)C12CCc1ccccc12`, the TGI in test [1], in [2], in test [3], in test [4], in [5] and in test [6] was greater than 100 µM each time. For the same compound, the TGI in [7] was greater than 100 µM.

As for `COc1ccc(/C=C2\CCC(CCN(C)C)(C3=CCCC3)C2=O)cc1` (centres undefined), the TGI in test [2] came to 28.2 µM; in test [3] it was 40.5 µM; in [8], 38.5 µM; in [9], 30.8 µM; in test [4], 32.8 µM; in [5] it was 30.8 µM. Further, the TGI in test [6] was found to be 40.5 µM; in test [7] it was 28.7 µM.

Regarding `CCOC(=O)c1sc(-c2ccc(OS(=O)(=O)C[C@]34CCC(CC3=O)C4(C)C)c(C=O)c2)nc1C`, the GI50 is 1.3 µM in test [1]; 1.05 µM in [2]; 1.03 µM in test [3]; 0.943 µM in test [8]; 0.908 µM in test [9]; 1.23 µM in [4]. In addition, the GI50 in test [5] is 1.05 µM; in [6], 1.41 µM; in [7], 1.39 µM. Further, the TGI in test [1] came out at 4.09 µM; in test [2] it was 4.65 µM; in [3] it was 3.24 µM; in [8] it was 2.72 µM; in test [9] it was 1.85 µM; in [4], 3.34 µM. For the same compound, the values for the TGI in test [5], in [6] and in test [7] were 2.34 µM, 4.58 µM and 4.09 µM, respectively.

Consider `CC1(C)COC2C(N(Cc3ccccc3)Cc3ccccc3)C(=O)N21` (centres undefined), for which the TGI in test [1] is 66.1 µM; in test [2], greater than 100 µM; in test [3] it was greater than 100 µM; in [8], greater than 100 µM; in test [9], 69.8 µM; in [4], greater than 100 µM. For the same compound, the TGI in [5], in test [6] and in [7] was greater than 100 µM in each case.

In the case of `CC(C)(C)NCC(O)COc1c(Br)c(Br)c(Br)c2c1OC(C)(C)C2` (centres undefined), the GI50 in [1] was 1.83 µM; in [2], 1.76 µM; in test [3], 1.77 µM; in test [9] it was 1.67 µM; in [4] it was 1.34 µM; in test [5], 1.68 µM. Moreover, the GI50 is 1.87 µM in [6] and 1.58 µM in [7]. The TGI turned out to be 3.3 µM in test [1]; 3.23 µM in [2]; 3.28 µM in [3]; 3.18 µM in [9]; 2.75 µM in [4]; 3.1 µM in test [5]. In addition, the TGI in [6] was 3.43 µM; in test [7], 3.21 µM.

As for `COC(=O)C(=O)C(CC(=O)Nc1ccc(C)cc1)C(=O)OC` (centres undefined), the TGI in test [1], in [2], in test [3], in test [8], in [9] and in test [4] was greater than 100 µM throughout. Besides, the TGI in test [5], in test [6] and in test [7] was greater than 100 µM in each case.

Regarding `COc1cccc(-c2cc(=O)c3cc4c(cc3[nH]2)OCO4)c1`, the TGI in test [1] was 1.15 µM; in test [2] it was greater than 100 µM; in [3], 0.898 µM; in [8] it was 0.593 µM; in [9], 0.317 µM; in [4], 2.37 µM. Besides, the TGI in test [5] is greater than 100 µM; in test [6], greater than 100 µM; in test [7], 10.2 µM.

Take `O=C1CCC2(c3ccccc3)Nc3ccccc3N12` (centres undefined): the TGI in [2], in test [3], in [8], in test [9], in test [4] and in [5] was greater than 100 µM throughout. Also, the TGI in test [6] and in test [7] was greater than 100 µM each time.

With `COC(=O)C(C(=O)C(=O)Nc1ccc(C)cc1C)c1csc(-n2nc(-c3ccccc3)cc2-c2ccccc2)n1` (centres undefined), the TGI in test [1], in [2], in [3], in test [8], in test [4] and in test [5] was greater than 100 µM throughout. The TGI in [6] and in test [7] was greater than 100 µM in each case.

As to `CCCC(=O)N[C@H]1CCc2cc(OC)c(OC)c(OC)c2-c2ccc(SC)c(=O)cc21`, the TGI is 5.75 µM in [1]; greater than 100 µM in test [2]; 0.0522 µM in [3]; 0.215 µM in test [8]; less than 0.01 µM in test [9]; 0.724 µM in test [4]. The TGI was greater than 100 µM in test [5], greater than 91.8 µM in test [6] and 63.1 µM in test [7].

`C=C1C(=O)C23[C@H](O)C1CC[C@H]2[C@]12COC3(O)[C@@H](O)[C@@H]1C(C)(C)CC[C@@H]2O`: the TGI in [1] is 31 µM; in [2], 29 µM; in test [3] it was 30.7 µM; in [9], 22.6 µM; in [4], 36.6 µM; in test [5], 33.3 µM. The TGI is 35.3 µM in test [6] and 24 µM in [7].

Consider `C#CCN(N=O)C(=O)ON1C(=O)CCC1=O`, for which the TGI in test [1], in test [2], in [3], in test [9], in test [4] and in [5] was greater than 100 µM in each case. Further, the TGI in [6] and in [7] was greater than 100 µM each time.

Consider `CC1CC2(S(=O)(=O)c3ccccc3)ON1CC2S(=O)(=O)c1ccccc1` (centres undefined), for which the TGI in [1], in [2], in test [3], in test [8], in [9] and in [4] was greater than 100 µM each time. Further, the TGI in test [5], in [6] and in test [7] was greater than 100 µM throughout.

Regarding `CN(C)C(=S)/N=c1\ssc(=S)n1C`, the TGI in test [1], in [2], in [3], in test [8], in test [9] and in test [4] was greater than 100 µM in each case. For the same compound, the TGI in test [6] and in [7] was greater than 100 µM throughout.

Values taken from PubChem BioAssay (NCI).
